Experimental data published in PMC3362725, “An open-label, phase 1 study evaluating safety, tolerability, and pharmacokinetics of linifanib (ABT-869) in Japanese patients with solid tumors” (Cancer Chemotherapy and Pharmacology, 2012).
Where “and” joins values, the source holds several entries; their conditions need not be identical. Equal values may be shown once. Marks after values point to notes of the source that are not given here.

Assay: Safety and tolerability: adverse events per CTCAE v3, dose-limiting toxicity, phase 1 study
Type: in vivo, human (Japanese patients with solid tumors)
Conditions: for dose-limiting toxicity observed: one patient
Experimental: A standard 3 + 3 design determined the dose level assignment. Patients were assigned to one of four sequential dose cohorts of once-a-day dose regimen of oral linifanib: 0.05, 0.10, 0.20, or 0.25 mg/kg, administered in the morning. […] Dose-limiting toxicity (DLT) was defined as Grade 4 neutropenia lasting >7 days, Grade 4 thrombocytopenia or decreased hemoglobin, Grade 3 or greater thrombocytopenia (if blood transfusion was required), febrile neutropenia, non-hematological toxicity except for manageable nausea, vomiting, anorexia, diarrhea, constipation or electrolyte abnormality, or a toxicity that required suspension of study drug for >7 days.
Patients self-administered linifanib once daily, on a 21-day cycle after fasting, and treatment continued until disease progression or intolerable toxicity. […] The initial oral dose, 2.5–25.0 mg in increments of 2.5 mg, was determined by the patients’ weights. […] The dose was reduced by 5.0 mg for patients ≥86 kg in the 0.10 mg/kg cohort, for patients in the 0.20 mg/kg cohort who were ≥81 kg at the first reduction and 61–80 and ≥96 kg at the 2nd reduction, and for patients in the 0.25 mg/kg cohort who were ≥66 kg at the first reduction and ≥86 kg at the second reduction. Patients were discontinued if they required dose reduction, specified by cohort: Any reduction (0.05 mg/kg cohort); >1 reduction (0.10 mg/kg cohort, and patients ≤31 kg in the 0.20 mg/kg cohort with an initial 5 mg dose); >2 reductions (0.25 mg/kg cohort, and patients ≥32 kg in the 0.20 mg/kg cohort with an initial ≥7.5 mg dose).
Baseline evaluations included physical examination, body weight, vital signs, 12-lead electrocardiogram, ECOG PS assessment, pregnancy test, laboratory tests, and multiple-gated acquisition scan/echocardiogram. Tumor response and/or disease progression was assessed by computerized tomography (CT) scan or magnetic resonance imaging (MRI) per RECIST [20] at screening and on Day (D) 1 of every second cycle prior to the subsequent treatment period, until tumor progression or until final visit. Complete response and partial response (PR) were defined according to RECIST [20]; objective response rate (ORR) was defined as the proportion of patients with best response of PR or CR among the study population. Safety assessments included laboratory test results and adverse events (AEs), which were graded according to CTCAE v3 [18] and coded by medical dictionary of regulatory activities (MedDRA) 1.0.

Cc1ccc(F)c(NC(=O)Nc2ccc(-c3cccc4[nH]nc(N)c34)cc2)c1 [linifanib, N-(4-(3-amino-1H-indazol-4-yl)phenyl)-N’-(2-fluoro-5-methylphenyl)urea]
Grade 3 linifanib-related AEs (0.05 mg/kg dose): no Grade 3 linifanib-related AEs
ALT increased, linifanib-related AE, patients (0.05 mg/kg n = 3, G1): 1
AST increased, linifanib-related AE, patients (0.05 mg/kg n = 3, G1): 1
Anorexia, linifanib-related AE, patients (0.05 mg/kg n = 3, G1): 1
Blood ALKP increased, linifanib-related AE, patients (0.05 mg/kg n = 3, G1): 1
Blood TG increased, linifanib-related AE, patients (0.05 mg/kg n = 3, G1): 1
Blood cholesterol increased, linifanib-related AE, patients (0.05 mg/kg n = 3, G1): 2
Blood urine present, linifanib-related AE, patients (0.05 mg/kg n = 3, G1): 1
Diarrhea, linifanib-related AE, patients (0.05 mg/kg n = 3, G1): 1
Hypertension, linifanib-related AE, patients (0.05 mg/kg n = 3, G1): 1
Neutropenia, linifanib-related AE, patients (0.05 mg/kg n = 3, G1): 2
Rash, linifanib-related AE, patients (0.05 mg/kg n = 3, G1): 1
Weight decreased, linifanib-related AE, patients (0.05 mg/kg n = 3, G1): 2
Blood ALKP increased, linifanib-related AE, patients (0.05 mg/kg n = 3, G2): 1
Hypertension, linifanib-related AE, patients (0.05 mg/kg n = 3, G2): 2
dose-limiting toxicity observed (0.10 mg/kg cohort): Grade 3 ALT increase
Grade 3 linifanib-related AEs (0.10 mg/kg dose): three
ALT increased, linifanib-related AE, patients (0.10 mg/kg n = 6, G1): 2
AST increased, linifanib-related AE, patients (0.10 mg/kg n = 6, G1): 4
Anorexia, linifanib-related AE, patients (0.10 mg/kg n = 6, G1): 2
Blood ALKP increased, linifanib-related AE, patients (0.10 mg/kg n = 6, G1): 1
Blood TG increased, linifanib-related AE, patients (0.10 mg/kg n = 6, G1): 3
Blood TSH increased, linifanib-related AE, patients (0.10 mg/kg n = 6, G1): 3
Blood cholesterol increased, linifanib-related AE, patients (0.10 mg/kg n = 6, G1): 3
Blood urine present, linifanib-related AE, patients (0.10 mg/kg n = 6, G1): 2
Diarrhea, linifanib-related AE, patients (0.10 mg/kg n = 6, G1): 3
Fatigue, linifanib-related AE, patients (0.10 mg/kg n = 6, G1): 1
GGT increased, linifanib-related AE, patients (0.10 mg/kg n = 6, G1): 3
Leukopenia, linifanib-related AE, patients (0.10 mg/kg n = 6, G1): 2
Neutropenia, linifanib-related AE, patients (0.10 mg/kg n = 6, G1): 1
Proteinuria, linifanib-related AE, patients (0.10 mg/kg n = 6, G1): 1
Rash, linifanib-related AE, patients (0.10 mg/kg n = 6, G1): 3
Thrombocytopenia, linifanib-related AE, patients (0.10 mg/kg n = 6, G1): 1
Weight decreased, linifanib-related AE, patients (0.10 mg/kg n = 6, G1): 2
Blood TG increased, linifanib-related AE, patients (0.10 mg/kg n = 6, G2): 1
Fatigue, linifanib-related AE, patients (0.10 mg/kg n = 6, G2): 1
GGT increased, linifanib-related AE, patients (0.10 mg/kg n = 6, G2): 1
Hypertension, linifanib-related AE, patients (0.10 mg/kg n = 6, G2): 5
Leukopenia, linifanib-related AE, patients (0.10 mg/kg n = 6, G2): 1
Palmar-plantar erythrodysaesthesia, linifanib-related AE, patients (0.10 mg/kg n = 6, G2): 3
Proteinuria, linifanib-related AE, patients (0.10 mg/kg n = 6, G2): 2
Thrombocytopenia, linifanib-related AE, patients (0.10 mg/kg n = 6, G2): 1
Weight decreased, linifanib-related AE, patients (0.10 mg/kg n = 6, G2): 1
Neutropenia, linifanib-related AE, patients (0.10 mg/kg n = 6, G3): 1
Proteinuria, linifanib-related AE, patients (0.10 mg/kg n = 6, G3): 1
ALT increased, linifanib-related AE, patients (0.20 mg/kg n = 3, G1): 2
AST increased, linifanib-related AE, patients (0.20 mg/kg n = 3, G1): 2
Anorexia, linifanib-related AE, patients (0.20 mg/kg n = 3, G1): 1
Blood ALKP increased, linifanib-related AE, patients (0.20 mg/kg n = 3, G1): 1
Blood TG increased, linifanib-related AE, patients (0.20 mg/kg n = 3, G1): 3
Blood TSH increased, linifanib-related AE, patients (0.20 mg/kg n = 3, G1): 3
Blood cholesterol increased, linifanib-related AE, patients (0.20 mg/kg n = 3, G1): 2
Blood urine present, linifanib-related AE, patients (0.20 mg/kg n = 3, G1): 2
Diarrhea, linifanib-related AE, patients (0.20 mg/kg n = 3, G1): 1
Fatigue, linifanib-related AE, patients (0.20 mg/kg n = 3, G1): 1
GGT increased, linifanib-related AE, patients (0.20 mg/kg n = 3, G1): 1
Leukopenia, linifanib-related AE, patients (0.20 mg/kg n = 3, G1): 2
Rash, linifanib-related AE, patients (0.20 mg/kg n = 3, G1): 1
T-wave abnormality, linifanib-related AE, patients (0.20 mg/kg n = 3, G1): 1
Weight decreased, linifanib-related AE, patients (0.20 mg/kg n = 3, G1): 1
Anorexia, linifanib-related AE, patients (0.20 mg/kg n = 3, G2): 1
Blood cholesterol increased, linifanib-related AE, patients (0.20 mg/kg n = 3, G2): 1
Fatigue, linifanib-related AE, patients (0.20 mg/kg n = 3, G2): 1
Hypertension, linifanib-related AE, patients (0.20 mg/kg n = 3, G2): 2
Neutropenia, linifanib-related AE, patients (0.20 mg/kg n = 3, G2): 2
Palmar-plantar erythrodysaesthesia, linifanib-related AE, patients (0.20 mg/kg n = 3, G2): 3
Thrombocytopenia, linifanib-related AE, patients (0.20 mg/kg n = 3, G2): 2
Weight decreased, linifanib-related AE, patients (0.20 mg/kg n = 3, G2): 2
Diarrhea, linifanib-related AE, patients (0.20 mg/kg n = 3, G3): 1
Hypertension, linifanib-related AE, patients (0.20 mg/kg n = 3, G3): 1
Proteinuria, linifanib-related AE, patients (0.20 mg/kg n = 3, G3): 1
dose-limiting toxicity observed (0.25 mg/kg cohort, dose interruption >7 days, discontinuation on D29): Grade 1 T-wave inversion
Grade 3 linifanib-related AEs (0.25 mg/kg dose): four
ALT increased, linifanib-related AE, patients (0.25 mg/kg n = 6, G1): 3
AST increased, linifanib-related AE, patients (0.25 mg/kg n = 6, G1): 6
Blood ALKP increased, linifanib-related AE, patients (0.25 mg/kg n = 6, G1): 4
Blood TG increased, linifanib-related AE, patients (0.25 mg/kg n = 6, G1): 2
Blood TSH increased, linifanib-related AE, patients (0.25 mg/kg n = 6, G1): 1
Blood cholesterol increased, linifanib-related AE, patients (0.25 mg/kg n = 6, G1): 2
Blood urine present, linifanib-related AE, patients (0.25 mg/kg n = 6, G1): 4
Fatigue, linifanib-related AE, patients (0.25 mg/kg n = 6, G1): 4
GGT increased, linifanib-related AE, patients (0.25 mg/kg n = 6, G1): 3
Leukopenia, linifanib-related AE, patients (0.25 mg/kg n = 6, G1): 3
Neutropenia, linifanib-related AE, patients (0.25 mg/kg n = 6, G1): 2
Proteinuria, linifanib-related AE, patients (0.25 mg/kg n = 6, G1): 1
Rash, linifanib-related AE, patients (0.25 mg/kg n = 6, G1): 6
Thrombocytopenia, linifanib-related AE, patients (0.25 mg/kg n = 6, G1): 2
Weight decreased, linifanib-related AE, patients (0.25 mg/kg n = 6, G1): 1
T-wave abnormality, linifanib-related AE, patients (0.25 mg/kg n = 6, G1, dose-limiting toxicity): 1^a
Anorexia, linifanib-related AE, patients (0.25 mg/kg n = 6, G2): 2
Blood TG increased, linifanib-related AE, patients (0.25 mg/kg n = 6, G2): 1
Blood TSH increased, linifanib-related AE, patients (0.25 mg/kg n = 6, G2): 1
Diarrhea, linifanib-related AE, patients (0.25 mg/kg n = 6, G2): 2
Fatigue, linifanib-related AE, patients (0.25 mg/kg n = 6, G2): 1
Hypertension, linifanib-related AE, patients (0.25 mg/kg n = 6, G2): 6
Leukopenia, linifanib-related AE, patients (0.25 mg/kg n = 6, G2): 2
Neutropenia, linifanib-related AE, patients (0.25 mg/kg n = 6, G2): 2
Palmar-plantar erythrodysaesthesia, linifanib-related AE, patients (0.25 mg/kg n = 6, G2): 3
Proteinuria, linifanib-related AE, patients (0.25 mg/kg n = 6, G2): 2
Thrombocytopenia, linifanib-related AE, patients (0.25 mg/kg n = 6, G2): 2
Weight decreased, linifanib-related AE, patients (0.25 mg/kg n = 6, G2): 1
ALT increased, linifanib-related AE, patients (0.25 mg/kg n = 6, G3): 1
Neutropenia, linifanib-related AE, patients (0.25 mg/kg n = 6, G3): 1
Proteinuria, linifanib-related AE, patients (0.25 mg/kg n = 6, G3): 2
dose reductions or interruptions for hypertension, neutropenia, or leucopenia (18 patients): no dose reductions or interruptions
ALT increased, linifanib-related AE, patients (All patients N = 18, any grade): 10 (56) n (%)
AST increased, linifanib-related AE, patients (All patients N = 18, any grade): 13 (72) n (%)
Anorexia, linifanib-related AE, patients (All patients N = 18, any grade): 7 (39) n (%)
Blood ALKP increased, linifanib-related AE, patients (All patients N = 18, any grade): 8 (44) n (%)
Blood TG increased, linifanib-related AE, patients (All patients N = 18, any grade): 11 (61) n (%)
Blood TSH increased, linifanib-related AE, patients (All patients N = 18, any grade): 8 (44) n (%)
Blood cholesterol increased, linifanib-related AE, patients (All patients N = 18, any grade): 10 (56) n (%)
Blood urine present, linifanib-related AE, patients (All patients N = 18, any grade): 9 (50) n (%)
Diarrhea, linifanib-related AE, patients (All patients N = 18, any grade): 8 (44) n (%)
Fatigue, linifanib-related AE, patients (All patients N = 18, any grade): 9 (50) n (%)
GGT increased, linifanib-related AE, patients (All patients N = 18, any grade): 8 (44) n (%)
Hypertension, linifanib-related AE, patients (All patients N = 18, any grade): 17 n (%) and 17 (94) n (%)
Leukopenia, linifanib-related AE, patients (All patients N = 18, any grade): 10 (56) n (%)
Neutropenia, linifanib-related AE, patients (All patients N = 18, any grade): 11 (61) n (%)
Palmar-plantar erythrodysaesthesia, linifanib-related AE, patients (All patients N = 18, any grade): 9 (50) n (%)
Proteinuria, linifanib-related AE, patients (All patients N = 18, any grade): 10 (56) n (%)
Rash, linifanib-related AE, patients (All patients N = 18, any grade): 11 (61) n (%)
T-wave abnormality, linifanib-related AE, patients (All patients N = 18, any grade): 2 (11) n (%)
Thrombocytopenia, linifanib-related AE, patients (All patients N = 18, any grade): 8 (44) n (%)
Weight decreased, linifanib-related AE, patients (All patients N = 18, any grade): 10 (56) n (%)
tolerability (Japanese patients with solid tumors, dose range 0.05–0.25 mg/kg): well tolerated
number of DLTs reported (all cohorts, 18 patients): Two
Grade 4 or 5 AEs (all doses, 18 patients): no Grade 4 or 5 AEs
patients who discontinued due to AEs (of 16 who discontinued): two
